Assay results reported in US8614327B2 (Vertex Pharmaceuticals Incorporated, priority 2004, dated 2013).

Target: T1, ΔF508-CFTR (Homo sapiens, UniProt P13569, DEL508-508)
T1 construct: expressed in transfected cells
Test: Membrane potential optical (FRET/VIPR) assay, identification of potentiator compounds
Format: cell-based
Details: Table 3, assay not given; for % Activity: relative efficacy
In short: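 Double-addition potentiator screen: compound delivered in gluconate-substituted Cl^--free medium, membrane potential followed via CC2-DMPE/DiSBAC2(3) FRET on VIPR. Cells were ΔF508-CFTR-expressing NIH3T3 mouse fibroblasts, held 2 h at 37° C. then 24 h at 27° C. before assay.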

T1 sequence (P13569 with tags, fused parts or gaps DEL508-508): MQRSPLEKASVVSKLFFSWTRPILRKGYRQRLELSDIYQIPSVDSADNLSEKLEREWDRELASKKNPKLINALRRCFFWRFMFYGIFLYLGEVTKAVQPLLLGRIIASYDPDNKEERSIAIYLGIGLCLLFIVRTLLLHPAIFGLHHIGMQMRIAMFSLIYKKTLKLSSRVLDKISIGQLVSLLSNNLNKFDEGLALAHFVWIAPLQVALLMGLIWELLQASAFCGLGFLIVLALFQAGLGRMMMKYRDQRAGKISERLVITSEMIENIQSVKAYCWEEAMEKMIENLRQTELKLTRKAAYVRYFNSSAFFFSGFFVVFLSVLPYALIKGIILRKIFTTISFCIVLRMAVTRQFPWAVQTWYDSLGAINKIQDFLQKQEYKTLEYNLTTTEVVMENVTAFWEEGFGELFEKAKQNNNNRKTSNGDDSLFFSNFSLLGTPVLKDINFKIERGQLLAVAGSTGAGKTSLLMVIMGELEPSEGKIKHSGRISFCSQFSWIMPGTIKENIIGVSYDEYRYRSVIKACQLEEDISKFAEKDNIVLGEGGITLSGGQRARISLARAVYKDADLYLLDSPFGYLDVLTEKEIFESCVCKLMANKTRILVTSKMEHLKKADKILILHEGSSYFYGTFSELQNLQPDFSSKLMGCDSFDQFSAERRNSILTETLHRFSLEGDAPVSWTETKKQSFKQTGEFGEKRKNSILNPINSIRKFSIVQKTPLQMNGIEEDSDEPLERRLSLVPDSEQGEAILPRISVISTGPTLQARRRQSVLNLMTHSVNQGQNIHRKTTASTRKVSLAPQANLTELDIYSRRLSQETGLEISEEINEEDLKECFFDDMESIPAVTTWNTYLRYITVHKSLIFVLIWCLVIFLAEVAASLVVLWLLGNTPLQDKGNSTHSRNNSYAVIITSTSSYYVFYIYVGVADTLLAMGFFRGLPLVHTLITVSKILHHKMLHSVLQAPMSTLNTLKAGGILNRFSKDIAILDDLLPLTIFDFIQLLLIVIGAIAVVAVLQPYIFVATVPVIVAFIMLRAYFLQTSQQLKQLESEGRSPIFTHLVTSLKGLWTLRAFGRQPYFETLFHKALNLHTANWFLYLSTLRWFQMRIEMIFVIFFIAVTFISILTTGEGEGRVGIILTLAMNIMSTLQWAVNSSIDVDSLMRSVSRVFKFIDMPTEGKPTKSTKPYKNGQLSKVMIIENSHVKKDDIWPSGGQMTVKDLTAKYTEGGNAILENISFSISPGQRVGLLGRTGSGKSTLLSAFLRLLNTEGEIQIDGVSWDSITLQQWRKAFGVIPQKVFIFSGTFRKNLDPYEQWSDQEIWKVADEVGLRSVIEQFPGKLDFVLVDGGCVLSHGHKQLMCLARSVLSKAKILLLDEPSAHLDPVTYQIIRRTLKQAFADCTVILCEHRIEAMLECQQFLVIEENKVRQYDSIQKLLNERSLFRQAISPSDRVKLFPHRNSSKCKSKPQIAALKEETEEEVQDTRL

Row | EC50 | % Activity | SMILES
1 | < 10 µM | ++ (between 25% to 100%) | O=C(Nc1ccc2cc(C(F)(F)F)[nH]c2c1)c1c[nH]c2ccc(F)cc2c1=O [Compound 495, 6-fluoro-4-oxo-N-[2-(trifluoromethyl)-1H-indol-6-yl]-1H-quinoline-3-carboxamide]
2 |  | ++ (between 25% to 100%) | O=C(Nc1ccc(N2CCCC2)cc1)c1c[nH]c2ccccc2c1=O [Compound 674, 4-oxo-N-(4-pyrrolidin-1-ylphenyl)-1H-quinoline-3-carboxamide]
3 | < 10 µM | +++ (>100%) | COc1cc2c(=O)c(C(=O)Nc3cc4[nH]ccc4cc3C(C)(C)C)c[nH]c2cc1F [Compound 611, 7-fluoro-6-methoxy-4-oxo-N-(5-tert-butyl-1H-indol-6-yl)-1H-quinoline-3-carboxamide]
4 | < 10 µM | ++ (between 25% to 100%) | CCOCCOc1cc(NC(=O)c2c[nH]c3ccccc3c2=O)ccc1C(C)(C)C [Compound 161, N-[3-(2-ethoxyethoxy)-4-tert-butyl-phenyl]-4-oxo-1H-quinoline-3-carboxamide]
5 | < 10 µM | +++ (>100%) | COc1ccc(C(C)C)cc1-c1ccccc1NC(=O)c1c[nH]c2ccccc2c1=O [Compound 59, N-[2-(5-isopropyl-2-methoxy-phenyl)phenyl]-4-oxo-1H-quinoline-3-carboxamide]
6 | 25 to 60 µM | + (<25%) | O=C(Nc1ccc(F)cn1)c1c[nH]c2ccccc2c1=O [Compound 477, N-(5-fluoro-2-pyridyl)-4-oxo-1H-quinoline-3-carboxamide]
7 | < 10 µM | ++ (between 25% to 100%) | CC(C)c1ccc(NC(=O)c2c[nH]c3cccc(O)c3c2=O)cc1O [Compound 587, 5-hydroxy-N-(3-hydroxy-4-isopropyl-phenyl)-4-oxo-1H-quinoline-3-carboxamide]
8 | < 10 µM | ++ (between 25% to 100%) | O=C(Nc1ccccc1Oc1ccc(Cl)cc1Cl)c1c[nH]c2ccccc2c1=O [Compound 245, N-[2-(2,4-dichlorophenoxy)phenyl]-4-oxo-1H-quinoline-3-carboxamide]
9 | 10 to 25 µM | ++ (between 25% to 100%) | N#Cc1c(Cl)cccc1NC(=O)c1c[nH]c2ccccc2c1=O [Compound 222, N-(3-chloro-2-cyano-phenyl)-4-oxo-1H-quinoline-3-carboxamide]
10 | < 10 µM | ++ (between 25% to 100%) | Nc1cc(NC(=O)c2c[nH]c3ccccc3c2=O)c(Cl)cc1Cl [Compound 242, N-(5-amino-2,4-dichloro-phenyl)-4-oxo-1H-quinoline-3-carboxamide]
11 | 25 to 60 µM | + (<25%) | NS(=O)(=O)c1ccccc1NC(=O)c1c[nH]c2ccccc2c1=O [Compound 78, 4-oxo-N-(2-sulfamoylphenyl)-1H-quinoline-3-carboxamide]
12 | < 10 µM | ++ (between 25% to 100%) | C[C@@H]1CCCN1c1ccc(NC(=O)c2c[nH]c3ccc(F)cc3c2=O)c(C(F)(F)F)c1 [Compound 684, (R)-6-fluoro-N-(4-(2-methylpyrrolidin-1-yl)-2-(trifluoromethyl)phenyl)-4-oxo-1,4-dihydroquinoline-3-carboxamide]
13 | < 10 µM | ++ (between 25% to 100%) | Cc1cccc(-c2ccccc2NC(=O)c2c[nH]c3ccccc3c2=O)c1C [Compound 401, N-[2-(2,3-dimethylphenyl)phenyl]-4-oxo-1H-quinoline-3-carboxamide]
14 |  | ++ (between 25% to 100%) | CC(C)(C)c1c[nH]c2cc(NC(=O)c3c[nH]c4ccccc4c3=O)c(C(F)(F)F)cc12 [Compound 508, 4-oxo-N-[3-tert-butyl-5-(trifluoromethyl)-1H-indol-6-yl]-1H-quinoline-3-carboxamide]
15 | 10 to 25 µM | ++ (between 25% to 100%) | N#Cc1ccccc1NC(=O)c1c[nH]c2ccccc2c1=O [Compound 95, N-(2-cyanophenyl)-4-oxo-1H-quinoline-3-carboxamide]
16 | < 10 µM | +++ (>100%) | CC(C)(C)c1ccc(NC(=O)c2c[nH]c3ccccc3c2=O)c(C(C)(C)C)c1O [Compound 594, N-(3-hydroxy-2,4-ditert-butyl-phenyl)-4-oxo-1H-quinoline-3-carboxamide]
17 | < 10 µM | +++ (>100%) | C[C@H]1CCCCN1c1ccc(NC(=O)c2c[nH]c3ccccc3c2=O)c(C(F)(F)F)c1 [Compound 713, (S)-N-(4-(2-methylpiperidin-1-yl)-2-(trifluoromethyl)phenyl)-4-oxo-1,4-dihydroquinoline-3-carboxamide]
18 | 10 to 25 µM | ++ (between 25% to 100%) | COc1nc2ccccc2c(OC)c1C(=O)Nc1cc(NC(=O)OC(C)(C)C)ccc1C(C)(C)C [Compound 39, [3-[(2,4-dimethoxy-3-quinolyl)carbonylamino]-4-tert-butyl-phenyl]aminoformic acid tert-butyl ester]

Row | EC50 | % Activity | SMILES
19 | < 10 µM | ++ (between 25% to 100%) | Cc1ccc2c(=O)c(C(=O)Nc3cc(O)c(C4(C)CCCCC4)cc3F)c[nH]c2c1 [Compound 499, N-[2-fluoro-5-hydroxy-4-(1-methylcyclohexyl)-phenyl]-7-methyl-4-oxo-1H-quinoline-3-carboxamide]
20 | 25 to 60 µM | + (<25%) | O=C(Nc1ccncc1)c1c[nH]c2ccccc2c1=O [Compound 53, 4-oxo-N-(4-pyridyl)-1H-quinoline-3-carboxamide]
21 | 10 to 25 µM | ++ (between 25% to 100%) | CC(=O)N1CC2(CC2)c2ccc(NC(=O)c3c[nH]c4ccccc4c3=O)cc21 [Compound 175, 4-Oxo-1,4-dihydro-quinoline-3-carboxylic acid N-(1′-Acetyl-1′,2′-dihydrospiro[cyclopropane-1,3′-3H-indol]-6′-yl)-amide]
22 | 10 to 25 µM | ++ (between 25% to 100%) | CC(C)(CO)c1ccc(NC(=O)c2c[nH]c3ccccc3c2=O)cc1 [Compound 5, N-[4-(2-hydroxy-1,1-dimethyl-ethyl)phenyl]-4-oxo-1H-quinoline-3-carboxamide]
23 | < 10 µM | ++ (between 25% to 100%) | COc1cc(NC(=O)c2c[nH]c3cccc(O)c3c2=O)cc(C(F)(F)F)c1 [Compound 502, 5-hydroxy-N-[3-methoxy-5-(trifluoromethyl)phenyl]-4-oxo-1H-quinoline-3-carboxamide]
24 | < 10 µM | ++ (between 25% to 100%) | CCc1cc2cc[nH]c2cc1NC(=O)c1c[nH]c2ccccc2c1=O [Compound 351, N-(5-ethyl-1H-indol-6-yl)-4-oxo-1H-quinoline-3-carboxamide]
25 | < 10 µM | ++ (between 25% to 100%) | CC(C)(C)c1c[nH]c2cc(NC(=O)c3c[nH]c4cccc(O)c4c3=O)ccc12 [Compound 535, 5-hydroxy-4-oxo-N-(3-tert-butyl-1H-indol-6-yl)-1H-quinoline-3-carboxamide]
26 | < 10 µM | ++ (between 25% to 100%) | CC(C)(C)c1cc(F)c(NC(=O)c2c[nH]c3ccccc3c2=O)cc1O [Compound 143, N-(2-fluoro-5-hydroxy-4-tert-butyl-phenyl)-4-oxo-1H-quinoline-3-carboxamide]
27 | < 10 µM | ++ (between 25% to 100%) | CC(C)(C)c1cc(F)c(NC(=O)c2c[nH]c3cc(C#N)ccc3c2=O)cc1O [Compound 677, 7-cyano-N-(2-fluoro-5-hydroxy-4-tert-butyl-phenyl)-4-oxo-1H-quinoline-3-carboxamide]
28 | < 10 µM | ++ (between 25% to 100%) | CC(C)(C)c1cc(C#N)c(NC(=O)c2c[nH]c3ccccc3c2=O)cc1O [Compound 476, N-(4-tert-Butyl-2-cyano-5-hydroxyphenyl)-1,4-dihydro-4-oxoquinoline-3-carboxamide]
29 | < 10 µM | ++ (between 25% to 100%) | O=C(Nc1cccc2c1CCC2)c1c[nH]c2ccccc2c1=O [Compound 373, N-indan-4-yl-4-oxo-1H-quinoline-3-carboxamide]
30 | < 10 µM | ++ (between 25% to 100%) | CC(C)(C)c1ccc(NC(=O)c2c[nH]c3ccccc3c2=O)cc1N1CCCCC1 [Compound 510, 4-oxo-N-[3-(1-piperidyl)-4-tert-butyl-phenyl]-1H-quinoline-3-carboxamide]
31 | < 10 µM | ++ (between 25% to 100%) | O=C(Nc1ccccc1)c1c[nH]c2cc(C(F)(F)F)ccc2c1=O [Compound 346, 4-oxo-N-phenyl-7-(trifluoromethyl)-1H-quinoline-3-carboxamide]
32 | < 10 µM | ++ (between 25% to 100%) | Cc1cccc2[nH]cc(C(=O)Nc3ccc(N4CC[C@@H](C)C4)cc3C(F)(F)F)c(=O)c12 [Compound 613, (R)-5-methyl-N-(4-(3-methylpyrrolidin-1-yl)-2-(trifluoromethyl)phenyl)-4-oxo-1,4-dihydroquinoline-3-carboxamide]
33 | < 10 µM | ++ (between 25% to 100%) | CSc1ccc(-c2ccccc2NC(=O)c2c[nH]c3ccccc3c2=O)cc1 [Compound 223, N-[2-(4-methylsulfanylphenyl)phenyl]-4-oxo-1H-quinoline-3-carboxamide]
34 | < 10 µM | ++ (between 25% to 100%) | Cc1ccc(NC(=O)c2c[nH]c3ccccc3c2=O)c(C)c1 [Compound 281, N-(2,4-dimethylphenyl)-4-oxo-1H-quinoline-3-carboxamide]
35 | < 10 µM | ++ (between 25% to 100%) | Cc1cc(C2CCCCC2)ccc1NC(=O)c1c[nH]c2ccccc2c1=O [Compound 647, N-(4-cyclohexyl-2-methyl-phenyl)-4-oxo-1H-quinoline-3-carboxamide]
36 | < 10 µM | ++ (between 25% to 100%) | O=C(Nc1cccc(Oc2ccccc2)c1)c1c[nH]c2ccccc2c1=O [Compound 87, 4-oxo-N-(3-phenoxyphenyl)-1H-quinoline-3-carboxamide]
